# Measured values reported in patent publication US20140309293A1, “CRYSTALLINE FORM” (L[…] INTE[…].P. A., priority 2011, published 2014).
# Assay: accelerated stability test
# Assay type: physicochemical
# Settings: compared with the known crystalline forms of R-(+)-α-lipoic acid
# Excerpt: Since it is a pharmaceutically active molecule which is notoriously very reactive and tends to polymerise, improved stability obviously represents a very important quality.
structure (smiles),measurement,value
"O=C(O)CCCCC1CCSS1 (stereo not drawn) [new crystalline form, R-(+)-α-lipoic acid]",stability of the crystalline form,more stable than the known crystalline forms
